Test results reported in paper PMC4113009, “Dihydroisoxazole inhibitors of Anopheles gambiae seminal transglutaminase AgTG3” (Malaria Journal, 2014).

Legend:
AgTG3 [1] = target: T1, AgTG3 (Anopheles gambiae, UniProt D2K8K8); assay: Covalent modification of AgTG3 by ESI-MS and tandem MS/MS; type: binding
Method: Recombinant AgTG3 (20 μM) was dialyzed against HEPES buffer containing 100 mM NaCl, 10 mM CaCl2, and 5% glycerol. Inhibitors were added to a final concentration of 100 μM and incubated overnight. Samples were subsequently injected on a Waters ACQUITY Ultraperformance liquid chromatography (UPLC) system coupled to an ACQUITY UPLC Photodiode Array (PDA) λ detector. Electrospray ionization (ESI) mass spectrograms were collected in the positive ion mode and subsequently transformed for molecular weight determination using MASSLYNX software (Waters).
Samples prepared for ESI-MS (50 μL) were pretreated with 2 μL of 10 g/l trypsin (Sigma) for 1 h at 37°C. The reaction was stopped by formic acid, and the sample was submitted to the W.M. Keck Biotechnology Resource Laboratory (Yale University) for tandem MS/MS proteomics analysis. Results were further analysed using the online MassMatrix server.
DHI inhibitors form a thioether bond with the TG active site cysteine, a modification that should be detectable by mass spectrometry. […] AgTG3 was treated with 100 μM 3 overnight and the intact protein subsequently analyzed by ESI-MS (Figure 8A). The parent mass for unmodified AgTG3 was detected at m/z = 84173 Da. […] The expected m/z shift for reaction with 3 is +470, however, […] than what was observed. To confirm the mass shift corresponds to modification of the active site cysteine with 3, treated AgTG3 was subjected to tryptic digestion and LC-MS/MS analysis. […] No other modified cysteines were detected in the protein. Taken together, the secondary in vitro assays of cross-linking and covalent modification confirm 1–3 as active site inhibitors of AgTG3.

[2] = test system: Anopheles gambiae G3 strain mosquitoes; assay: Anopheles gambiae laboratory mating assay (mating plug transfer); type: in vivo
Method: Anopheles gambiae G3 strain mosquitoes from a laboratory colony were reared using standard conditions (26–28°C, 65–80% relative humidity, 12 h/12 h Light/Darkness (L:D) photoperiod). Mosquitoes were sexed as pupae and adult males and females were allowed to emerge in separate cages to ensure their status as virgins. Three-day-old virgin males were injected with 138 nl of 100 μM of inhibitor diluted in 5% DMSO, or with 138 nl of a 5% DMSO solution as a control. Mating experiments were performed four days after eclosion as described previously and couples were captured in copula. RNAi experiments were performed as previously described. Mated females were dissected within two hours of mating to determine the presence of the mating plug in their atrium.
Finally, A. gambiae laboratory mating assays were performed to test if the DHI inhibitors identified in the pilot screen could inhibit male transfer of the mating plug. Compound 3, 100 μM in DMSO, was administered to male mosquitoes by intrathoracic injection. Injected males were mated with virgin females, and their ability to transfer a mating plug to females was assessed (Table 1). […] Thus, injection of males with AgTG3 inhibitor 3 is at least as effective as injection of dsRNA to inhibit mating plug formation in A. gambiae males.

AgTG3 [3] = target: T1, AgTG3; assay: biochemical; conditions: dose–response curves in the range of 0.5–100 μM, FITC-CAD plate assay; read-out: IC50 for inhibition of AgTG3
Method: Plugin-C (25 μg/well) was incubated in black 96-well Ni-coated plates (Pierce 15342) for 2 h at room temperature or overnight at 4°C. Plates were washed three times with 200 μL of TBS and loaded with 0.5 μg of AgTG3 in 50 μL TBS buffer. DHI inhibitors were added for 1 h to block the enzyme, followed by 50 μL of 2× assay buffer (2× TBS, 20 mM CaCl2, 100 μM FITC-CAD, 2 mM DTT). Wells were incubated for 60 min at room temperature, washed three times with 200 μL of TBS, and filled to a final volume of 100 μL for fluorescence measurements in a microplate reader (Biotek Synergy 2). The z-score was calculated based on the mean and standard deviation of three replicates of inhibitor compared to a DMSO control, zi=x¯DMSO-x¯i/σDMSO+σi .
The targeted chemical library was screened for inhibition of AgTG3 at 100 μM in a FITC-CAD plate assay (Figure 3A), performed in triplicate as previously described. Hit-calling was based on >67% decrease in fluorescence compared to DMSO and z > 5. Seven compounds fulfilled these criteria in the primary assay.
To verify the results of this preliminary assay, dose–response curves in the range of 0.5–100 μM were determined for 27 structurally related compounds within the targeted library (Additional file 3: Table S2 and Additional file 4: Table S3). […] Selected stereoisomers present in the targeted library were compared in equivalent dose–response assays. Inhibition of AgTG3 was specific for the (S)-DHI isomer of 1 (Figure 4A), the (R) isomer (4) displaying no activity (IC50 > 100 μM).

AgTG3 [4] = target: T1, AgTG3; assay: AgTG3 plugin cross-linking assay (SDS-PAGE, FITC-CAD); type: biochemical; conditions: 100 μM inhibitor, 5 mM CaCl2, intensity of high MW bands
Method: Recombinant AgTG3 was pre-incubated with 100 μM inhibitors overnight at room temperature. AgTG3, with and without pretreatment with inhibitors (1 μg), was added to plugin-C (20 μg) and 0.5 mM FITC-cadaverine (FITC-CAD) in 25 mM HEPES, pH 7.5, 10 mM CaCl2, 1 mM DTT. The reaction was incubated at room temperature for 2 h and quenched by heat denaturation of the proteins in the presence of Laemmli buffer. The extent of cross-linking was analysed by sodium dodecyl sulphate-polyacrylamide gel electrophoresis (SDS-PAGE). The gel was scanned using Alpha Imager 2200 software.
Additional assays were performed to examine whether compounds 1 and 3 would inhibit the cross-linking of plugin-C by AgTG3 in solution, with FITC-CAD for fluorescent detection of plugin-C. Results were assessed by SDS/PAGE and UV illumination to detect FITC-CAD (Figure 7). […] In the presence of enzyme, substrate and calcium a ladder of fluorescent bands of increasing molecular weight (MW) is observed (lane 4), corresponding to cross-linked oligomers of plugin also labeled by FITC-CAD. […] However, the levels of AgTG3 in solution assays are higher in the cross-linking assay than the primary screen. The levels of plugin-C were also higher, which competes with slow-binding irreversible inhibitors such as 1 and 3 for the active site of AgTG3.
Figure 7 Inhibition of plugin cross-linking by DHI inhibitors. Fluorescent image of SDS-PAGE for FITC-cadaverine labeling and cross-linking of plugin by AgTG3. Lanes (1–4): (1) AgTG3, (2) Plugin-C, (3) AgTG3 and plugin-C, (4) AgTG3, plugin-C, and 5 mM CaCl2. Lanes (5–8): AgTG3, plugin-C, 5 mM CaCl2 and (5) 10 mM EDTA, (6) 50 mM IA, (7) 100 μM 1, (8) 100 μM 3. (below) Coomassie stain indicating relative levels of monomeric Plugin-C.

T1 sequence (D2K8K8 entry or part of it): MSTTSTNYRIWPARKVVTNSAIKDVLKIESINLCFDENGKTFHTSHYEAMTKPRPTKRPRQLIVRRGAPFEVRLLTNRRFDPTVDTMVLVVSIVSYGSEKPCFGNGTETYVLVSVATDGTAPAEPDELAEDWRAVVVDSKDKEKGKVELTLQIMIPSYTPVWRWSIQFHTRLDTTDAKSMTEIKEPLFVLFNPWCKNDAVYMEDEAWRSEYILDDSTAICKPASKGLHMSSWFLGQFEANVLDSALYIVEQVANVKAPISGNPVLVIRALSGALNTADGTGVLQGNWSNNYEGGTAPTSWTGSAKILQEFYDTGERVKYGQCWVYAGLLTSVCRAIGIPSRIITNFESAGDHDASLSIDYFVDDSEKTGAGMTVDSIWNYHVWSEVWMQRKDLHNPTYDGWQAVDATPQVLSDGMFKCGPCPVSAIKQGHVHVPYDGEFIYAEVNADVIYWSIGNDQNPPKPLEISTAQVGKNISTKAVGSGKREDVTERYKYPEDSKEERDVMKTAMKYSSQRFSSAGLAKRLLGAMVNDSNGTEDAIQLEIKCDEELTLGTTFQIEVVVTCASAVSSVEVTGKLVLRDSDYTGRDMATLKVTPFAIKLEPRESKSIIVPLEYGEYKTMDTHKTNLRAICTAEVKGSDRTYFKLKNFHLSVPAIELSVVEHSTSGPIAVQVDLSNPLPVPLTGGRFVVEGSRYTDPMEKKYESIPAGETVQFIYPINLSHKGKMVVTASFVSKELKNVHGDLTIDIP

O=C(N[C@@H](Cc1c[nH]c2ccccc12)C(=O)NC[C@@H]1CC(Br)=NO1)OCc1cnc2ccccc2c1
Mass shift of intact AgTG3 after treatment (AgTG3 [1]; 100 μM overnight, ESI-MS): +465 m/z | Mass shift of tryptic peptide containing AgTG3 active site cysteine (AgTG3 [1]; 100 μM overnight, tryptic digestion, LC-MS/MS): +469 amu | Site of covalent modification of AgTG3 (AgTG3 [1]; y ion fragmentation, no other modified cysteines detected): specific modification of Cys 323 | Reduction in transfer of the mating plug ([2]; intrathoracic injection of males): 15% | Mating plug transferred (number of females) ([2]; males injected intrathoracically (3: 138 nl of 100 μM; dsRNA as ref 39), N 75 (3), 77 (dsAgTG3)): 64 | No plug transferred (number of females) ([2]; males injected intrathoracically (3: 138 nl of 100 μM; dsRNA as ref 39), N 75 (3), 77 (dsAgTG3), three independent experiments): 11 | Females that failed to receive a mating plug ([2]; males injected intrathoracically, DMSO control 3%, dsLacZ control 2%): 15% | Ill effect of injection on males ([2]; males injected with 3): no obvious ill effect from wounding | IC50 (AgTG3 [3]): 6.1 µM | Inhibition of plugin-C cross-linking by AgTG3 (AgTG3 [4]): to a lesser extent
